# Target: T1, ERα (Homo sapiens, UniProt P03372)
# T1 sequence (P03372 1-595): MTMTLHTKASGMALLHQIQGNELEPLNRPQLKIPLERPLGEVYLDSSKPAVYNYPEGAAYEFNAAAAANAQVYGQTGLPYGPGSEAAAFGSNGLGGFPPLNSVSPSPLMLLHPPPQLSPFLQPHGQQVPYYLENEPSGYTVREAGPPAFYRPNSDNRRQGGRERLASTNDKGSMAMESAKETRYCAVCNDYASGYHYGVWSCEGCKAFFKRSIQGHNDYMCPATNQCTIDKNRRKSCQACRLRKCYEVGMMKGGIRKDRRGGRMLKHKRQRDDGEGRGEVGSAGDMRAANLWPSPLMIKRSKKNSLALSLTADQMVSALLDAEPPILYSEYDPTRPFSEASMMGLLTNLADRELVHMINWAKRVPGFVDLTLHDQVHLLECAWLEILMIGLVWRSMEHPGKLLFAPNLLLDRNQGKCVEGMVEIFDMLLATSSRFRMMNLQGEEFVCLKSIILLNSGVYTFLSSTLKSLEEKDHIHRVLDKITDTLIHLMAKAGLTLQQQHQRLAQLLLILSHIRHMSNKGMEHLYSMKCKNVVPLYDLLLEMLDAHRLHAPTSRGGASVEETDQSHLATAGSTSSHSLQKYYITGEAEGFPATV
# Assay: ERα degradative activity in T47D cells (western blot, densitometry)
# Assay type: cell-based
# Design: endogenous in cells; host or cells: T47D
# Settings: T47D cell line; concentration at which 50% of the target protein (ERα) is degraded
# Method: T47D cells were plated in 24-well plates at 1.5×10^5 cells/well in the RPMI growth medium containing 10% FBS and 1× Penicillin Streptomycin, and then incubated at 37° C. overnight. The following day, the test compound was administered to the cells by using 1000× compound stock solution prepared in DMSO at various concentrations. After administration of the compound, the cells were then incubated at 37 C for various period of treatment time, e.g., as indicated in the figures.
# Upon completion, the cells were washed with PBS and protein was collected in Laemmli sample buffer (1×; VWR International). Protein was isolated from cell lysate (approximately 25 μg) by SDS-PAGE and transferred to nitrocellulose membranes. Non-specific binding was blocked by incubation with blocking buffer (5% milk in Tris-buffered saline with 0.1% Tween 20 (“TBS-T”)) at rt for 60 minutes.
# The membrane was then incubated with primary antibodies (mouse anti-ERα (1:500, Santa Cruz), mouse anti-GAPDH (1:5,000, Santa Cruz), or mouse anti-actin (1:4,000, Santa Cruz)) overnight at 4° C., followed by washing (3 times) with TBS-T, and then incubation with horseradish peroxidase-conjugated rabbit anti-mouse IgG (1:5,000) for 60 minutes. After the TBS-T washes, blots were developed with an enhanced chemiluminescence kit (ThermoFisher Scientific) and the bands were imaged and quantified by densitometry (Bio-Rad).
# The DC50 values (i.e., the concentration of test compound at which 50% of the target protein is degraded) was calculated for various compounds of the present disclosure and are shown in the Table 3, below. A corresponds to a DC50 value less than or equal to 1.5 μM; B corresponds to a DC50 value greater than 1.5 μM and less than 3 μM; and C corresponds to a DC50 value greater than 3 μM.
row,DC50,Structure (SMILES)
1,> 3 µM,"CC/C(=C(\c1ccccc1)c1ccc(OCCN(C)C(=O)CCOCCNc2cccc3c2C(=O)N(C2CCC(=O)NC2=O)C3=O)cc1)c1ccccc1 (stereo not shown) [Compound 8, (Z)-3-(2-((2-(2,6-dioxopiperidin-3-yl)-1,3-dioxoisoindolin-4-yl)amino)ethoxy)-N-(2-(4-(1,2-diphenylbut-1-en-1-yl)phenoxy)ethyl)-N-methylpropanamide]"
2,≤ 1.5 µM,"CC/C(=C(\c1ccccc1)c1ccc(OCCN(C)C(=O)CCOCCOCCOCCOCCNc2cccc3c2C(=O)N(C2CCC(=O)NC2=O)C3=O)cc1)c1ccccc1 (stereo not shown) [Compound 54, (Z)-1-((2-(2,6-dioxopiperidin-3-yl)-1,3-dioxoisoindolin-4-yl)amino)-N-(2-(4-(1,2-diphenylbut-1-en-1-yl)phenoxy)ethyl)-N-methyl-3,6,9,12-tetraoxapentadecan-15-amide]"
3,1.5 to 3 µM,"CC/C(=C(\c1ccccc1)c1ccc(OCCN(C)C(=O)CCCCCCCNc2cccc3c2C(=O)N(C2CCC(=O)NC2=O)C3=O)cc1)c1ccccc1 (stereo not shown) [Compound 143, (Z)-8-((2-(2,6-dioxopiperidin-3-yl)-1,3-dioxoisoindolin-4-yl)amino)-N-(2-(4-(1,2-diphenylbut-1-en-1-yl)phenoxy)ethyl)-N-methyloctanamide]"
4,≤ 1.5 µM,"CC/C(=C(\c1ccccc1)c1ccc(OCCN(C)C(=O)CCCCCNc2cccc3c2C(=O)N(C2CCC(=O)NC2=O)C3=O)cc1)c1ccccc1 (stereo not shown) [Compound 120, (Z)-6-((2-(2,6-dioxopiperidin-3-yl)-1,3-dioxoisoindolin-4-yl)amino)-N-(2-(4-(1,2-diphenylbut-1-en-1-yl)phenoxy)ethyl)-N-methylhexanamide]"
5,> 3 µM,"CC/C(=C(\c1ccccc1)c1ccc(OCCN(C)C(=O)CCOCCOCCNc2cccc3c2C(=O)N(C2CCC(=O)NC2=O)C3=O)cc1)c1ccccc1 (stereo not shown) [Compound 15, (Z)-3-(2-(2-((2-(2,6-Dioxopiperidin-3-yl)-1,3-dioxoisoindolin-4-yl)amino)ethoxy)ethoxy)-N-(2-(4-(1,2-diphenylbut-1-en-1-yl)phenoxy)ethyl)-N-methylpropanamide]"
6,≤ 1.5 µM,"CC/C(=C(\c1ccccc1)c1ccc(OCCN(C)C(=O)CCNc2cccc3c2C(=O)N(C2CCC(=O)NC2=O)C3=O)cc1)c1ccccc1 (stereo not shown) [Compound 89, (Z)-3-((2-(2,6-dioxopiperidin-3-yl)-1,3-dioxoisoindolin-4-yl)amino)-N-(2-(4-(1,2-diphenylbut-1-en-1-yl)phenoxy)ethyl)-N-methylpropanamide]"
7,≤ 1.5 µM,"CC/C(=C(\c1ccccc1)c1ccc(OCCN(C)C(=O)CCCNc2cccc3c2C(=O)N(C2CCC(=O)NC2=O)C3=O)cc1)c1ccccc1 (stereo not shown) [Compound 108, (Z)-4-((2-(2,6-dioxopiperidin-3-yl)-1,3-dioxoisoindolin-4-yl)amino)-N-(2-(4-(1,2-diphenylbut-1-en-1-yl)phenoxy)ethyl)-N-methylbutanamide]"
8,> 3 µM,"CC/C(=C(\c1ccccc1)c1ccc(OCCN(C)C(=O)CNc2cccc3c2C(=O)N(C2CCC(=O)NC2=O)C3=O)cc1)c1ccccc1 (stereo not shown) [Compound 88, (Z)-2-((2-(2,6-dioxopiperidin-3-yl)-1,3-dioxoisoindolin-4-yl)amino)-N-(2-(4-(1,2-diphenylbut-1-en-1-yl)phenoxy)ethyl)-N-methylacetamide]"
9,1.5 to 3 µM,"CC/C(=C(\c1ccccc1)c1ccc(OCCN(C)C(=O)CCCCCCNc2cccc3c2C(=O)N(C2CCC(=O)NC2=O)C3=O)cc1)c1ccccc1 (stereo not shown) [Compound 126, (Z)-7-((2-(2,6-dioxopiperidin-3-yl)-1,3-dioxoisoindolin-4-yl)amino)-N-(2-(4-(1,2-diphenylbut-1-en-1-yl)phenoxy)ethyl)-N-methylheptanamide]"
10,≤ 1.5 µM,"CC/C(=C(\c1ccccc1)c1ccc(OCCN(C)C(=O)CCOCCOCCOCCOCCOCCNc2cccc3c2C(=O)N(C2CCC(=O)NC2=O)C3=O)cc1)c1ccccc1 (stereo not shown) [Compound 64, (Z)-1-((2-(2,6-dioxopiperidin-3-yl)-1,3-dioxoisoindolin-4-yl)amino)-N-(2-(4-(1,2-diphenylbut-1-en-1-yl)phenoxy)ethyl)-N-methyl-3,6,9,12,15-pentaoxaoctadecan-18-amide]"
